Data as given in patent publication US20260166039A1 (SCHRÖDINGER, INC., priority 2022, published 2026).
Read-outs that look alike come from different tables or passages of the source.

Legend:
[1] = biological target: T1, Wee1 kinase domain (Homo sapiens, UniProt P30291); test: Wee1 Kinase Biochemical Assay (ADP-Glo); settings: 15 uM ATP
T1 construct: Wee1 kinase domain was purchased from Carna (catalog #05-177); purchased Carna 05-177
Procedure, shortened: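 Poly(Lys,Tyr 4:1) phosphorylation by the kinase domain is followed as ADP output (ADP-Glo) after 4 h at 25 °C, with ATP at 15 uM. Values are percent inhibition between vehicle and full-inhibition controls.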

[2] = system: phosphorylation of Cdc2 Y15 (Wee1 substrate) in A427 cells; test: Phosphorylated Cdc2 MSD Electrochemiluminescence Assay; assay type: cell-based; settings: Homo sapiens
Procedure, shortened: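 A427 cells (RPMI 1640, 10% FBS) treated 20 h after plating with 3-fold serial compound dilutions, in duplicate, 37 °C, 5% CO2; total incubation 6 h. Lysate Cdc2 pY15 read by MSD electrochemiluminescence sandwich immunoassay; % remaining signal normalised to DMSO (high) and reference Wee1 inhibitor (low) controls.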

[3] = class symbols, 1 nM Wee1 enzyme, 4 hours at 25° C.
[4] = A-427, class symbols, read-out: A427 pCDC2 MSD IC50

T1 sequence (P30291 299-569 limits assumed): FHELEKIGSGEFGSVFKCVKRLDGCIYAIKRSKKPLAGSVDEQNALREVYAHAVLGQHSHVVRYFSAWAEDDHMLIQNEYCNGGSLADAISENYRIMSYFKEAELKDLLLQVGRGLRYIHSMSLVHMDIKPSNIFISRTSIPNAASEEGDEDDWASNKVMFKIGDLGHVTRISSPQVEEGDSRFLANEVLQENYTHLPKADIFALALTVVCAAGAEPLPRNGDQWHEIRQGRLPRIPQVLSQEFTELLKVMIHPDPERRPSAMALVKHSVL

| SMILES | IC50 [1, 3] | IC50 [2, 4] | IC50 ([1]; Wee1 kinase domain, ADP-Glo) | IC50 ([2]; A-427, pCDC2 MSD) |
| --- | --- | --- | --- | --- |
| CN1CC(c2ccc(Nc3ncc4c(n3)N(c3cccc(N5CCOC5=O)n3)[C@@H]3CC(C)(C)OC[C@]43C)cc2)C1 [Example 698, 3-(6-((4bR,8aR)-4b,7,7-trimethyl-2-((4-(1-methylazetidin-3-yl)phenyl)amino)-4b,7,8,8a-tetrahydropyrano[3′,4′:4,5]pyrrolo[2,3-d]pyrimidin-9(5H)-yl)pyridin-2-yl)oxazolidin-2-one] | < 10 nM | 100 to 1000 nM |  |  |
| C[C@H]1CCC(=O)N1c1cccc(N2c3nc(Nc4cnn(C5CCN(C)CC5)c4)ncc3C3(C)COC(C)(C)CC23)n1 (stereo in doubt) [Example 556, (S)-5-methyl-1-(6-((4bR,8aR)-4b,7,7-trimethyl-2-((1-(1-methylpiperidin-4-yl)-1H-pyrazol-4-yl)amino)-4b,7,8,8a-tetrahydropyrano[3′,4′:4,5]pyrrolo[2,3-d]pyrimidin-9(5H)-yl)pyridin-2-yl)pyrrolidin-2-one] | < 10 nM | 100 to 1000 nM |  |  |
| C[C@H]1COC(=O)N1c1cccc(N2c3nc(Nc4ccc(N5C[C@@H]6C[C@H]5CN6C)cc4)ncc3[C@@]3(C)COC(C)(C)C[C@@H]23)n1 (single isomer, unassigned) [Example 245] |  |  | < 10 nM | 100 to 1000 nM |
| C[C@H]1COC(=O)N1c1cccc(N2c3nc(Nc4ccc([C@H]5CCNC5)nc4)ncc3[C@@]3(C)COC(C)(C)C[C@@H]23)n1 (single isomer, unassigned) [Example 259] |  |  | < 10 nM | 100 to 1000 nM |
| CN1CCN(c2ccc(Nc3ncc4c(n3)N(c3cccc(N5C(=O)CCC5(C)C)n3)[C@@H]3CC(C)(C)OC[C@]43C)cc2)CC1 (single isomer, unassigned) [Example 729] | < 10 nM | 100 to 1000 nM |  |  |
| CN1CC[C@H](c2ccc(Nc3ncc4c(n3)N(c3cccc(N5CCOC5=O)n3)[C@@H]3CC(C)(C)OC[C@]43C)cc2)C1 (single isomer, unassigned) [Example 602] | < 10 nM | 100 to 1000 nM |  |  |
| COc1cccc(N2c3nc(Nc4ccc(N5CCN(C)CC5)cc4)ncc3[C@@]3(C)COC(C)(C)C[C@@H]23)n1 (single isomer, unassigned) [Example 758] | < 10 nM | 100 to 1000 nM |  |  |
| CC1(C)CC2N(c3cccc([C@@H]4CCNC4)n3)c3nc(Nc4ccc(N5CCOCC5)cc4)ncc3C2(C)CO1 (stereo in doubt) [Example 539, (4bR,8aR)-4b,7,7-trimethyl-N-(4-morpholinophenyl)-9-(6-((R)-pyrrolidin-3-yl)pyridin-2-yl)-4b,5,7,8,8a,9-hexahydropyrano[3′,4′:4,5]pyrrolo[2,3-d]pyrimidin-2-amine] | < 10 nM | 100 to 1000 nM |  |  |
| CN1CCC(n2cc(Nc3ncc4c(n3)N(c3cccc(C(C)(C)O)n3)[C@@H]3CC(C)(C)OC[C@]43C)cn2)CC1 (single isomer, unassigned) [Example 11] |  |  | < 10 nM | 100 to 1000 nM |
| CNCc1cccc(N2c3nc(NC(=O)[C@@H]4C[C@H]4c4ccccc4)ncc3[C@@]3(C)COC(C)(C)C[C@@H]23)n1 [Example 760, (1R,2R)-2-phenyl-N-((4bR,8aR)-4b,7,7-trimethyl-9-(6-((methylamino)methyl)pyridin-2-yl)-4b,5,7,8,8a,9-hexahydropyrano[3′,4′:4,5]pyrrolo[2,3-d]pyrimidin-2-yl)cyclopropane-1-carboxamide] | < 10 nM | 100 to 1000 nM |  |  |
| C[C@H]1COC(=O)N1c1cccc(N2c3nc(Nc4ccc(N5CC6(CN(C)C6)C5)cc4)ncc3[C@@]3(C)COCC[C@@H]23)n1 (single isomer, unassigned) [Example 784] | < 10 nM | 100 to 1000 nM |  |  |
| CN1C[C@@H]2CN(c3ccc(Nc4ncc5c(n4)N(c4cccc(N6CCCC6=O)n4)[C@@H]4CC(C)(C)OC[C@]54C)cc3)C[C@@H]2C1 [Example 694, 1-(6-((4bR,8aR)-4b,7,7-trimethyl-2-((4-((3aR,6aS)-5-methylhexahydropyrrolo[3,4-c]pyrrol-2(1H)-yl)phenyl)amino)-4b,7,8,8a-tetrahydropyrano[3′,4′:4,5]pyrrolo[2,3-d]pyrimidin-9(5H)-yl)pyridin-2-yl)pyrrolidin-2-one] | < 10 nM | 100 to 1000 nM |  |  |

Results, then the compound that gave them:

| IC50 [1, 3] | IC50 [2, 4] | IC50 ([1]; Wee1 kinase domain, ADP-Glo) | IC50 ([2]; A-427, pCDC2 MSD) | SMILES |
| --- | --- | --- | --- | --- |
| < 10 nM | ≥ 10000 nM |  |  | CC1(C)C[C@H]2N(c3cccc(N=S(C)(C)=O)n3)c3nc(NC(=O)[C@@H]4C[C@H]4C4CCOCC4)ncc3[C@@]2(C)CO1 (single isomer, unassigned) [Example 412] |
| < 10 nM | < 100 nM |  |  | CC1(C)C[C@H]2N(c3cccc(P(C)(C)=O)n3)c3nc(Nc4ccn(C5CCOCC5)c(=O)c4)ncc3[C@@]2(C)CO1 (single isomer, unassigned) [Example 780] |
| < 10 nM | 1000 to 10000 nM |  |  | CN1CCC(c2ccc(Nc3ncc4c(n3)N(c3cccc(N=S(C)(C)=O)c3)[C@@H]3CC(C)(C)OC[C@]43C)cn2)CC1 [Example 710, dimethyl((3-((4bR,8aR)-4b,7,7-trimethyl-2-((6-(1-methylpiperidin-4-yl)pyridin-3-yl)amino)-4b,7,8,8a-tetrahydropyrano[3′,4′:4,5]pyrrolo[2,3-d]pyrimidin-9(5H)-yl)phenyl)imino)-16-sulfanone] |
|  |  | < 10 nM | < 100 nM | CC1(C)C[C@H]2N(c3cccc(N=S(C)(C)=O)n3)c3nc(Nc4ccc(O[C@H]5CCNC5)cc4)ncc3[C@@]2(C)CO1 (single isomer, unassigned) [Example 153] |
| < 10 nM | 100 to 1000 nM |  |  | CN1CC[C@@H](Oc2ccc(Nc3ncc4c(n3)N(c3cccc(C(C)(C)O)n3)C3CC(C)(C)OCC43C)cc2)C1 (stereo in doubt) [Example 423, 2-(6-((4bR,8aR)-4b,7,7-trimethyl-2-((4-(((R)-1-methylpyrrolidin-3-yl)oxy)phenyl)amino)-4b,7,8,8a-tetrahydropyrano[3′,4′:4,5]pyrrolo[2,3-d]pyrimidin-9(5H)-yl)pyridin-2-yl)propan-2-ol] |
|  |  | < 10 nM | 100 to 1000 nM | CNCc1cccc(N2c3nc(Nc4ccc(C5CCOCC5)nc4)ncc3[C@@]3(C)COC(C)(C)C[C@@H]23)n1 (single isomer, unassigned) [Example 56] |
|  |  | < 10 nM | 100 to 1000 nM | CNCc1cccc(N2c3nc(Nc4ccc5c(c4)C(=O)N(C)C5)ncc3[C@@]3(C)COC(C)(C)C[C@@H]23)n1 (single isomer, unassigned) [Example 32] |
|  |  | < 10 nM | 100 to 1000 nM | CN1CCC[C@@H]1c1ccc(Nc2ncc3c(n2)N(c2cccc(N=S(C)(C)=O)n2)[C@@H]2CC(C)(C)OC[C@]32C)cn1 (single isomer, unassigned) [Example 210] |
| < 10 nM | 1000 to 10000 nM |  |  | CC1(C)C[C@H]2N(c3cccc(N=S(C)(C)=O)n3)c3nc(NC(=O)[C@H]4C[C@@H]4C4CCOCC4)ncc3[C@@]2(C)CO1 (single isomer, unassigned) [Example 411] |
|  |  | < 10 nM | < 100 nM | CNCc1cccc(N2c3nc(Nc4ccc([C@H]5CCOC5)cc4)ncc3[C@@]3(C)COC(C)(C)C[C@@H]23)n1 (single isomer, unassigned) [Example 40] |
|  |  | < 10 nM | 100 to 1000 nM | CNCc1cccc(N2c3nc(Nc4ccc(C5CCOCC5)cc4)ncc3[C@@]3(C)COC(C)(C)C[C@@H]23)n1 (single isomer, unassigned) [Example 35] |
|  |  | < 10 nM | 100 to 1000 nM | CN1CCC[C@H]1c1ccc(Nc2ncc3c(n2)N(c2cccc(N=S(C)(C)=O)n2)[C@@H]2CC(C)(C)OC[C@]32C)cn1 (single isomer, unassigned) [Example 216] |
| < 10 nM | 100 to 1000 nM |  |  | CNCc1cccc(N2c3nc(Nc4ccc(N5CCOC[C@H]5C)cc4)ncc3[C@@]3(C)COC(C)(C)C[C@@H]23)n1 (single isomer, unassigned) [Example 473] |
| < 10 nM | 1000 to 10000 nM |  |  | CN1CCC(n2cc(Nc3ncc4c(n3)N(c3cccc(N=S(C)(C)=O)c3)[C@@H]3CC(C)(C)OC[C@]43C)cn2)CC1 [Example 716, dimethyl((3-((4bR,8aR)-4b,7,7-trimethyl-2-((1-(1-methylpiperidin-4-yl)-1H-pyrazol-4-yl)amino)-4b,7,8,8a-tetrahydropyrano[3′,4′:4,5]pyrrolo[2,3-d]pyrimidin-9(5H)-yl)phenyl)imino)-16-sulfanone] |
|  |  | < 10 nM | < 100 nM | CN1C[C@H]2C[C@@H]1CN2c1ccc(Nc2ncc3c(n2)N(c2cccc(N=S(C)(C)=O)n2)[C@@H]2CC(C)(C)OC[C@]32C)cc1 (single isomer, unassigned) [Example 122] |
|  |  | < 10 nM | < 100 nM | Cc1cc(Nc2ncc3c(n2)N(c2cccc(N=S(C)(C)=O)n2)[C@@H]2CC(C)(C)OC[C@]32C)ccc1N1CCN(C)CC1 (single isomer, unassigned) [Example 106] |
|  |  | < 10 nM | 100 to 1000 nM | CNC(=O)c1ccc(Nc2ncc3c(n2)N(c2cccc(N=S(C)(C)=O)n2)[C@@H]2CC(C)(C)OC[C@]32C)cc1F [Example 119, 4-(((4bR,8aR)-9-(6-((dimethyl(oxo)-16-sulfaneylidene)amino)pyridin-2-yl)-4b,7,7-trimethyl-4b,5,7,8,8a,9-hexahydropyrano[3′,4′:4,5]pyrrolo[2,3-d]pyrimidin-2-yl)amino)-2-fluoro-N-methylbenzamide] |
|  |  | < 10 nM | 100 to 1000 nM | CN[C@@H]1CCN(c2ccc(Nc3ncc4c(n3)N(c3cccc(N5C(=O)OC[C@@H]5C)n3)[C@@H]3CC(C)(C)OC[C@]43C)cc2)C1 (single isomer, unassigned) [Example 319] |
